We go through 41 compounds from the Deep4Chem optical property database.

The data set can be described thus: solvent given as SMILES.

As to `Cc1cc(-c2nc3c4ccccc4c4ccccc4c3n2-c2ccc(C(C)(C)C)cc2)ccc1-c1ccc(-c2c(-c3ccccc3)nc3ccccn23)cc1`, the absorption maximum (in ClCCl) was determined as 364 nm.

Under “in CC#N”, `Oc1ccc2ccccc2c1/C=N/c1cc2ccccc2cc1/N=C/c1c(O)ccc2ccccc12` yielded an absorption maximum of 474 nm.

`CC1(C)C(/C=C/C2=C(Cl)C(=C/C=C3/N(Cc4ccccc4)c4ccccc4C3(C)C)/CCC2)=[N+](Cc2ccccc2)c2ccccc21` yielded an absorption maximum (in CO) of 784 nm.

Consider `C[n+]1ccc(/C=C/c2ccc(N(c3ccccc3)c3ccc(/C=C/c4cc[n+](C)cc4)cc3)cc2)cc1`, for which the absorption maximum stood at 402 nm (in ClCCl), 509 nm (in O) and 496 nm (in OCC(O)CO).

Take `COc1cc(F)c(C(=O)c2cc(F)c(OC)cc2F)cc1F`: the absorption maximum (in CCO) is listed as 301 nm.

Take `CCN(CC)/C(C)=N\c1ccc2c3c(cccc13)C(=O)c1ccccc1-2`: the absorption maximum (in C1CCOC1) amounted to 472 nm; the absorption maximum (in CCCCCC) was determined as 444 nm; the absorption maximum (in CCO) came to 473 nm; the absorption maximum (in CCOC(C)=O) is given as 463 nm; the absorption maximum (in CN(C)C=O) is 479 nm; the absorption maximum (in CO) turned out to be 472 nm. Also, the absorption maximum is on record as 461 nm (in Cc1ccccc1); 467 nm (in ClC(Cl)(Cl)Cl); 467 nm (in ClC(Cl)Cl); 467 nm (in ClCCl); 462 nm (in c1ccccc1).

Take `CCCCCCCCCCn1nnc(-c2ccc(C#Cc3ccc(C#Cc4ccc(-c5nnn(CCCCCCCCCC)n5)cc4)c4nc5c6ccccc6c6ccccc6c5nc34)cc2)n1`: the absorption maximum runs as follows: (in C1CCOC1) 428 nm; (in Cc1ccccc1) 428 nm; (in ClCCl) 428 nm.

For `CC(=O)OC[C@@H]1O[C@H](n2cnc3c2N=CN2Cc4c[n+](C)c(C)nc4N=C32)[C@@H](O)[C@H]1O`, the absorption maximum is, setting by setting: (in CC#N) 392 nm; (in CCO) 389 nm; (in O) 383 nm.

Regarding `C[N+]1=C(/C=C/C2=C3Oc4c(cc5c6c4CCCN6CCC5)C(c4ccccc4C(=O)O)=C3CCC2)C(C)(C)c2ccccc21`, the absorption maximum is 724 nm (in CC#N), 710 nm (in CCO), 714 nm (in CO) and 730 nm (in ClC(Cl)Cl).

`CC(C)(C)c1ccc(-c2sc3c(-c4ccc(C(C)(C)C)cc4)c4n(c3c2-c2ccc(C(C)(C)C)cc2)[B-](F)(F)[N+]2=Cc3c(-c5ccc(C(C)(C)C)cc5)c5sc(-c6ccc(C(C)(C)C)cc6)c(-c6ccc(C(C)(C)C)cc6)c5n3[B-](F)(F)[N+]2=C4)cc1`: the absorption maximum is listed as 574 nm (in CC#N); 591 nm (in CCCCCC); 584 nm (in CN(C)C=O); 596 nm (in Cc1ccccc1); 591 nm (in ClCCl).

The compound `COC(=O)c1ccc(-c2ccc3c(c2)C(=O)c2cc(-c4ccc(C(=O)OC)cc4)ccc2-3)cc1` gave an absorption maximum (in C1CCOC1) of 342 nm.

`c1ccc(C2=C3c4ccccc4C4=[N+]3[B-]3(Oc5ccccc54)Oc4ccccc4-c4c5ccccc5c2n43)cc1` (stereo not given) returned an absorption maximum (in ClCCl) of 711 nm.

As to `N#Cc1ccc(C=C(c2ccccc2)c2ccccc2)cc1`, the absorption maximum (in C1CCOC1) is listed as 321 nm.

Turning to `Cc1cc2nc3[nH]c(=O)[nH]c(=O)c3nc2cc1C`, where the note is “in CC#N”, the absorption maximum was 380 nm.

`O=c1cc(-c2nc3ccccn3c2NC2CCCCC2)occ1OCc1ccccc1` gave an absorption maximum (in ClCCl) of 357 nm.

`Cc1cc(O)c(-c2[nH]c(=O)n3c2-c2ccccc2C3=O)cc1Cl`: the absorption maximum runs as follows: (in CC#N) 393 nm; (in CO) 395 nm; (in ClCCl) 399 nm.

As for `Nc1n[n+]([O-])c2cc(F)ccc2[n+]1[O-]`, the absorption maximum by setting is: (in CC#N) 489 nm; (in O) 468 nm.

For `CCn1c2ccccc2c2cc(/C=C/c3cc(/C=C/c4ccc5c(c4)c4ccccc4n5CC)[n+](CCCS(=O)(=O)[O-])c(/C=C/c4ccc5c(c4)c4ccccc4n5CC)c3)ccc21`, the absorption maximum by setting is: (in C1CCOC1) 464 nm; (in CC#N) 458 nm; (in CC(C)=O) 462 nm; (in Cc1ccccc1) 466 nm.

For `CCNc1cc2oc3c/c(=[NH+]\CC)c(C)cc-3c(-c3ccccc3C(=O)OCC)c2cc1C`, the absorption maximum is 524 nm (in CC#N); 527 nm (in CCO); 534 nm (in CN(C)C=O); 530 nm (in CO); 525 nm (in O).

As for `COc1ccc2c(c1)c1cc(OC)ccc1n2-c1ccc2c(c1)-c1cc(-n3c4ccc(OC)cc4c4cc(OC)ccc43)ccc1P2(=O)c1ccccc1`, the absorption maximum (in Cc1ccccc1) amounted to 369 nm.

As to `Cc1cc(N2c3ccccc3C3(c4ccccc4-c4ccccc43)c3ccccc32)c(C)cc1-c1nc(-c2ccccc2)nc(-c2ccccc2)n1`, where the note is “in Cc1ccccc1”, the absorption maximum is on record as 382.89 nm.

`O=C1c2ccccc2-c2nc3c(F)c(F)c(F)c(F)c3n21` returned an absorption maximum (in ClCCl) of 337 nm.

Regarding `c1cc2c(C3SCCCS3)c3ccc(=[N+]4CCCCC4)cc-3oc2cc1N1CCCCC1`, the absorption maximum (in CO) worked out at 583.65 nm.

Turning to `CC(C)(C)c1ccc(-c2cc(-c3ccc(-c4cc(-c5ccc(C(C)(C)C)cc5)c(C(=O)NCc5ccccc5)s4)s3)sc2C(=O)NCc2ccccc2)cc1`, the absorption maximum (in ClCCl) stood at 394 nm.

With `CC(C)(C)c1ccc2c(c1)c1cc(C(C)(C)C)ccc1n2-c1ccc(C#Cc2ccc3c4ccc(C#Cc5ccc(C=C(C#N)C#N)cc5)cc4n(-c4ccc(C(F)(F)F)cc4)c3c2)cc1`, the absorption maximum (in ClCCl) is 355 nm.

As to `CCN1c2ccccc2Sc2cc(/C=C(\C#N)c3ccccc3)ccc21`, the absorption maximum is, setting by setting: (in C1CCOC1) 411 nm; (in CC#N) 409 nm; (in CC(C)=O) 410 nm; (in CN(C)C=O) 414 nm; (in CS(C)=O) 418 nm; (in Cc1ccccc1) 412 nm. This compound also came in with an absorption maximum (in ClCCl) of 413 nm.

`Cc1cc(O)c(C(=O)/C=C/c2cccc(O)c2)c(=O)o1` showed an absorption maximum (in CC#N) of 367 nm and an absorption maximum (in ClCCl) of 374 nm.

In the case of `N#Cc1nn(-c2ccccc2)nc1N1CCCC1`, the absorption maximum (in CC#N) is recorded as 340 nm.

`CN(C)c1ccc(C#Cc2ccc3ccc(=O)oc3c2)cc1` came in with an absorption maximum (in CC#N) of 333 nm.

For `C1=Cc2ccccc2C(=Cc2ccc(-c3cc(-c4ccc(C=C5c6ccccc6C=Cc6ccccc65)cc4)cc(-c4ccc(C=C5c6ccccc6C=Cc6ccccc65)cc4)c3)cc2)c2ccccc21`, the absorption maximum (in C1CCOC1) came out at 325 nm.

For the compound `CCCCCCc1ccc(-n2c3[n+](c4c5ccccc5c5ccccc5c42)[B-](C)(C)c2cc(-n4c5ccccc5c5ccccc54)ccc2-3)cc1`, the absorption maximum worked out at 370 nm (in C1CCOC1), 369 nm (in CC#N), 375 nm (in Cc1ccccc1) and 372 nm (in ClCCl).

With `CCn1ncc2c3c(C#N)c4c5ccccc5n(CC)c4nc3ccc21`, the absorption maximum (in CCOC(C)=O) turned out to be 383 nm.

As for `CC(=O)Nc1ccc(S(=O)(=O)O)c(/N=N/c2c(O)c3ccccc3n(C)c2=O)c1`, the absorption maximum was 435 nm (in C1CCOC1); 425 nm (in CC(C)=O); 434 nm (in CCOC(C)=O); 423 nm (in CO); 428 nm (in CS(C)=O); 437 nm (in Cc1ccccc1). The absorption maximum reads like this: (in ClCCl) 435 nm; (in O) 417 nm.

`COc1ccc(-c2cc(-c3ccc(N(C)C)cc3)nc(-c3ccccc3)n2)cc1` had an absorption maximum (in ClC(Cl)Cl) of 365 nm.

In turn, `N#Cc1c(-n2c3ccccc3c3cc(Br)ccc32)c(-n2c3ccccc3c3cc(Br)ccc32)c(C#N)c(-n2c3ccccc3c3cc(Br)ccc32)c1-n1c2ccccc2c2cc(Br)ccc21` yielded an absorption maximum (in Cc1ccccc1) of 337 nm.

Take `COc1ccc2c(=O)c3c([nH]c2c1)-c1cc(Cl)ccc1NC3(C)C`: the absorption maximum reads like this: (in C1CCOC1) 411 nm; (in CC#N) 421 nm; (in CCCCO) 426 nm; (in CCCO) 426 nm; (in CCO) 426 nm; (in CCOC(C)=O) 417 nm. In addition, the absorption maximum runs as follows: (in CN(C)C=O) 425 nm; (in CO) 428 nm; (in CS(C)=O) 426 nm; (in Cc1ccccc1) 405 nm; (in ClC(Cl)(Cl)Cl) 419 nm; (in ClCCl) 408 nm. The absorption maximum (in O) was 405 nm and the absorption maximum (in c1ccccc1) is 420 nm.

As for `CCCCN(CCCC)c1ccc(C#Cc2cc(C#Cc3ccc([N+](=O)[O-])cc3)c(C#Cc3ccc(N(CCCC)CCCC)cc3)cc2C#Cc2ccc([N+](=O)[O-])cc2)cc1`, the absorption maximum (in ClCCl) worked out at 448 nm.

Where the note is “in Cc1ccccc1”, `O=C(c1ccc(-n2c3ccccc3c3ccccc32)cc1)c1ccc(-n2c3ccccc3c3ccccc32)cc1` came in with an absorption maximum of 340 nm.

Compound `CCOC(=O)c1c2c3c(ccc(OC)c3c3cc4ccccc4cc13)N(C)C2=O` came in with an absorption maximum (in CC#N) of 406 nm.

Regarding `Cc1ccc([C@@H]2C[C@](O)(c3ccccn3)C[C@](O)(c3ccccn3)[C@H]2C(=O)c2ccc(N(c3ccccc3)c3ccccc3)cc2)cc1`, the absorption maximum is 366 nm (in C1CCOC1); 364 nm (in CC#N); 366 nm (in CCO); 366 nm (in CCOC(C)=O); 360 nm (in CN(C)C=O); 372 nm (in ClCCl). This compound showed an absorption maximum (in c1ccccc1) of 370 nm.

The compound `CCCCCCCC[Si](C)(C)c1cccc2ccccc12` showed an absorption maximum (in C1CCCCC1) of 294 nm.
